Measurements reported in patent US12564193B2, “Isoxazoline-substituted benzamide derivative, and preparation method therefor and use thereof” (SHANDONG UNITED PESTICIDE INDUSTRY CO., LTD., priority 2020, dated 2026).

Key:
Type in all cases: in vivo
Spodoptera litura = test: Insecticidal activity, spray on pre-infested radish plants: Spodoptera litura; details: 144 h, read-out: fatality rate on Spodoptera litura
Procedure: (§1) For determination of insecticidal activity, the test method was as follows: a test solution with a desired concentration was prepared by dissolving a test compound sample in a suitable solvent (the kind of solvent was such as acetone, methanol, DMSO, etc., and was selected according to its dissolving ability for the sample). The test cell was composed of a small open container with 12-15 day old radish plants inside. The plants were pre-infested by placing 30-40 pests located on one leaf cut from the cultivated plant on one leaf of the test plant (leaf cutting method). As the leaves dehydrated, the pests moved on the test plants. After the pre-infesting, the soil of the test cells was covered with a layer of sand.
(§2) The test method was as follows: the test was repeated for three times, and after spraying the formulated test compound, each test unit was allowed to dry for 1 hour, and then a black mesh cover was placed at the top. The test units were kept in a growth chamber at 25° C. and 70% relative humidity for 6 days. The mortality (fatality rate) of the insects was then visually assessed for each test unit, and the fatality rate was calculated as follows: […]

[1] = tested on: Frankliniella occidentalis; test: Insecticidal activity, spray on pre-infested radish plants: Frankliniella occidentalis; details: for Fatality rate on Frankliniella occidentalis (%): Table 3; for pest or weed control at 1 ppm / pest or weed control at 10 ppm / pest or weed control at 25 ppm: Frankliniella occidentalis, 144 h, read-out: fatality rate on Frankliniella occidentalis
Procedure: as §1
The test method was as follows: the test was repeated for three times, and after spraying the formulated test compound, each test unit was allowed to dry for 1 hour, and then a black mesh cover was placed at the top. The test units were kept in a growth chamber at 25° C. and 70% relative humidity for 6 days. The mortality (fatality rate) of the insects was then visually assessed for each test unit, and the fatality rate was calculated as follows:
[formula] (1) Test Results for the Control of Frankliniella occidentalis by Exemplary Example Compounds

Plutella xylostella = test: Insecticidal activity, spray on pre-infested radish plants: Plutella xylostella; details: for Fatality rate on Plutella xylostella (%): Table 3; for pest or weed control at 0.1 ppm / pest or weed control at 1 ppm / pest or weed control at 10 ppm: Plutella xylostella, 144 h, read-out: fatality rate on Plutella xylostella
Procedure: as §1, §2

Mythimna separata = test: Insecticidal activity, spray on pre-infested radish plants: Mythimna separata; details: for Fatality rate on Mythimna separata (%): Table 3; for pest or weed control at 0.1 ppm / pest or weed control at 1 ppm / pest or weed control at 10 ppm: Mythimna separata, 144 h, read-out: fatality rate on Mythimna separata
Procedure: as §1, §2

Pieris rapae = test: Insecticidal activity, spray on pre-infested radish plants: Pieris rapae; details: 144 h, read-out: fatality rate on Pieris rapae
Procedure: as §1, §2

Cnaphalocrocis medinalis = test: Insecticidal activity, spray on pre-infested radish plants: Cnaphalocrocis medinalis; details: 144 h, read-out: fatality rate on Cnaphalocrocis medinalis
Procedure: as §1, §2

Tetranychus cinnabarinus = test: Acaricidal activity, slide immersion of female adult mites: Tetranychus cinnabarinus; details: 24 h, read-out: fatality rate on Tetranychus cinnabarinus
Procedure: The test method was as follows: a test solution with a desired concentration was prepared by dissolving a test compound sample in a suitable solvent (the kind of solvent was such as acetone, methanol, DMSO, etc., and was selected according to its dissolving ability for the sample). A double-sided adhesive tape was cut into 2-3 cm long pieces, the pieces were attached to one end of a microscope slide, paper pieces on the adhesive tape were removed using tweezers, female adult mites which were consistent in size, bright in body color and lively in action were selected using a zero-size brush pen, the backs of the female adult mites were adhered to the double-sided adhesive tape (note: the adhesion should not cover mite feet, mite whiskers and mouthparts), with 4 rows of mites adhered to each piece and 10 heads of the mites adhered to each row.
One end of the glass slide with the mites was immersed into a drug liquid, with slightly shaking for 5 seconds, and then the slide was taken out. The excess drug liquid around the mite body and is surroundings is quickly sucked off using absorbent paper. The slide was placed in the biochemical incubator described above, and the results were checked by using binoculars after 24 hours. The mites were slightly touched by using a brush pen, the mites with immobility in feet were considered to be dead, and the fatality rate was calculated. The fatality rate was calculated as follows: […]

Chilo suppressalis = test: Insecticidal activity, spray on pre-infested radish plants: Chilo suppressalis; details: for Fatality rate on Chilo suppressalis (%): Table 3; for pest or weed control at 0.1 ppm / pest or weed control at 1 ppm / pest or weed control at 10 ppm: Chilo suppressalis, 144 h, read-out: fatality rate on Chilo suppressalis
Procedure: as §1, §2

Structure (SMILES) | pest or weed control at 0.1 ppm (Spodoptera litura) [%] | pest or weed control at 1 ppm (Spodoptera litura) [%] | pest or weed control at 10 ppm (Spodoptera litura) [%] | pest or weed control at 1 ppm [1] [%] | pest or weed control at 10 ppm [1] [%] | pest or weed control at 25 ppm [1] [%] | pest or weed control at 0.1 ppm (Plutella xylostella) [%] | pest or weed control at 1 ppm (Plutella xylostella) [%] | pest or weed control at 10 ppm (Plutella xylostella) [%] | pest or weed control at 0.1 ppm (Mythimna separata) [%] | pest or weed control at 1 ppm (Mythimna separata) [%] | pest or weed control at 10 ppm (Mythimna separata) [%] | pest or weed control at 0.1 ppm (Pieris rapae) [%] | pest or weed control at 1 ppm (Pieris rapae) [%] | pest or weed control at 10 ppm (Pieris rapae) [%] | pest or weed control at 0.1 ppm (Cnaphalocrocis medinalis) [%] | pest or weed control at 1 ppm (Cnaphalocrocis medinalis) [%] | pest or weed control at 10 ppm (Cnaphalocrocis medinalis) [%] | pest or weed control at 1 ppm (Tetranychus cinnabarinus) [%] | pest or weed control at 10 ppm (Tetranychus cinnabarinus) [%] | other results
Cc1cc(C2=NOC(c3cc(Cl)c(F)c(Cl)c3)(C(F)(F)F)C2)ccc1C(=O)NCc1ncc(C(F)(F)F)cc1Cl (stereo not drawn) [Compound 9, N-((3-chloro-5-(trifluoromethyl)pyridin-2-yl)methyl)-4-(5-(3,5-dichloro-4-fluorophenyl)-5-(trifluoromethyl)-4,5-dihydroisoxazol-3-yl)-2-methylbenzamide] | > 80 | > 80 | > 80 | > 80 | > 80 | > 80 | > 80 | > 80 | > 80 | > 80 | > 80 | > 80 | > 80 | > 80 | > 80 | > 80 | > 80 | > 80 | > 80 | > 80 | Fatality rate on Frankliniella occidentalis (%) ([1]; 1 ppm): 95%; Fatality rate on Frankliniella occidentalis (%) ([1]; 10 ppm): 100%; Fatality rate on Frankliniella occidentalis (%) ([1]; 25 ppm): 100%; Fatality rate on Plutella xylostella (%) (Plutella xylostella; 0.1 ppm): 100%; Fatality rate on Plutella xylostella (%) (Plutella xylostella; 1 ppm): 100%; Fatality rate on Plutella xylostella (%) (Plutella xylostella; 10 ppm): 100%; Fatality rate on Mythimna separata (%) (Mythimna separata; 0.1 ppm): 100%; Fatality rate on Mythimna separata (%) (Mythimna separata; 1 ppm): 100%; Fatality rate on Mythimna separata (%) (Mythimna separata; 10 ppm): 100%; pest or weed control at 25 ppm (Tetranychus cinnabarinus): > 80%; Fatality rate on Chilo suppressalis (%) (Chilo suppressalis; 0.1 ppm): 95%; Fatality rate on Chilo suppressalis (%) (Chilo suppressalis; 1 ppm): 100%; Fatality rate on Chilo suppressalis (%) (Chilo suppressalis; 10 ppm): 100%; pest or weed control at 0.1 ppm (Chilo suppressalis): > 80%; pest or weed control at 1 ppm (Chilo suppressalis): > 80%; pest or weed control at 10 ppm (Chilo suppressalis): > 80%
Cc1cc(C2=NOC(c3cc(Cl)c(F)c(Cl)c3)(C(F)(F)F)C2)ccc1C(=O)NCCc1cnccc1C(F)(F)F (stereo not drawn) [Compound 17] | > 80 | > 80 | > 80 | > 80 | > 80 | > 80 | > 80 | > 80 | > 80 | > 80 | > 80 | > 80 | > 80 | > 80 | > 80 | > 80 | > 80 | > 80 | > 80 | > 80 | pest or weed control at 25 ppm (Tetranychus cinnabarinus): > 80%; pest or weed control at 0.1 ppm (Chilo suppressalis): > 80%; pest or weed control at 1 ppm (Chilo suppressalis): > 80%; pest or weed control at 10 ppm (Chilo suppressalis): > 80%
Cc1cc(C2=NOC(c3cc(Cl)c(F)c(Cl)c3)(C(F)(F)F)C2)ccc1C(=O)NCc1cnc(Cl)cc1Cl (stereo not drawn) [Compound 7] | > 80 | > 80 | > 80 | > 80 | > 80 | > 80 | > 80 | > 80 | > 80 | > 80 | > 80 | > 80 | > 80 | > 80 | > 80 | > 80 | > 80 | > 80 | > 80 | > 80 | pest or weed control at 25 ppm (Tetranychus cinnabarinus): > 80%; pest or weed control at 0.1 ppm (Chilo suppressalis): > 80%; pest or weed control at 1 ppm (Chilo suppressalis): > 80%; pest or weed control at 10 ppm (Chilo suppressalis): > 80%
